Laboratory results as given in patent publication US8871900B2, “Fibroblast growth factor (FGF) analogs and uses thereof” (University of Rochester, priority 2008, dated 2014).
Peptide text beside a SMILES is read from it.

How the values were obtained:
BM cells [1] = assay: 3H-TdR incorporation of normal and irradiated (0.5 Gy) BM cells; format: cell-based, mouse
Procedure: To determine if BM cells damaged by IR still responded to FGF-P, cells were plated in 96 round-bottom wells with serum-free ultraDoma-PF media and equally divided into two parts; one was not irradiated as control, and the other was irradiated with 0.5 Gy. They were then treated with equal amount of test agents within 1 hour post-IR. The following day, 0.2 uCi/well of ^3H-TdR was added and they were further cultured for 4 days before harvesting with a 96 well automatic harvester. […] There was no response to EPO.

[2] = Plasma GI endocrine and exocrine markers after sub-TBI; format: in vivo, mouse (Balb/c); settings: 10.5 Gy sub-TBI, 3.5 days
Text: The gastrointestinal tract facilitates nutritional absorption and digestion through endocrine organs and exocrine function. Measurements of these functions in Balb/c mice with AGS, with and without FGF-P treatment have been made. Regarding endocrine function, critical proteins produced by epithelial cells lining the small intestine and/or the pancreas are: 1) secretin, which stimulates secretion of a bicarbonate-rich fluid from the pancreas and liver; and 2) insulin, produced by pancreatic β cells, which controls the level of blood glucose. Regarding exocrine function, a major digestive protein, amylase was measured. Amylase is secreted by epithelial cells along the GI tract, including the pancreas.
For secretin, the amino acid sequence in mice is ([…], SEQ ID NO: 4), which has a one amino acid change (M vs. T) at position 5. The kit for human secretin (Peninsula Laboratories, cat #S-1229) has been tested and it recognizes the mouse form. A mouse insulin kit is available (Linco Inc. Cat #EZRMI-13 K). The EnzChek Ultr Amylase Assay kit (Molecular Probes, Cat #E33651.3) can be used for all species, since it measures for the enzymatic product. Blood glucose level can be measured with a commercial kit from Sigma (Cat #GAG0-20 and GAHK-20) and is based on enzymatic activity, which is also universal to all species. Using these kits, the alterations in the plasma concentrations of the GI-derived proteins and peptides in mice that had been exposed to 10.5 Gy sub-TBI and, thereafter, received vehicle alone or FGF-P ([…] im) for 3 doses (10 min, 1 day, and 2 days post-IR) were measured. The samples were collected 3.5 days after irradiation.

[3] = test system: BM cells (megakaryocyte colony); assay: Megakaryocyte colony formation of BM cells (MegaCult-C); format: cell-based, mouse (Balb/c); settings: cytokine cocktail reduced to 50%; FGF-P 100 ng/ml
Text: (§1) Survival of ARS depends on rapid reconstitution of hematopoiesis after IR-induced myelosuppression. […] However, the timing and mechanism of effect on BM stem cells is unknown. Also unclear are the number of FGFRs on hematopoietic stem cells (HSCs) and their role in reconstitution after IR. […] To characterize the effects of FGF-P on BM, the study approach was to obtain fresh BM (including both HSCs and MSCs) from Balb/c mice, and culture it under varying conditions (3 D culture or 2 D round-bottom well) in triplicate for 1-3 weeks. The BM cells were stimulated with FGF-P at different doses (as test) or with EPO, TPO, GM-CSF or native FGF2 (as a positive control). The cultures were examined using several methods including colony count, photography, CyQUANT® assay and ^3H-TdR incorporation.

BM cells [4] = assay: BM colony formation in MethoCult 3 D culture; format: cell-based, mouse (Balb/c)
Text: as §1

[5] = test system: Balb/c mice exposed to TBI; assay: Survival after TBI (BM syndrome / ARS); format: in vivo, mouse (Balb/c); settings: for mice survived: Balb/c
[6] = Blood cell counts after 4 or 5 Gy TBI; format: in vivo, mouse
Text: In parallel, the leucocytes and red cells were increased as compared to vehicle-treated mice that received the same IR dose (FIGS. 17C and D).

BM cells [7] = assay: BM cell growth in round-bottom 96 well 2 D culture (CyQUANT); format: cell-based, mouse (Balb/c); settings: FGF-P 500 ng/ml
Text: as §1

platelet = assay: Platelet aggregation after 4 Gy TBI; format: in vivo, mouse; settings: day 29 after 4 Gy TBI; FGF-P right post-IR daily for 6 day; P<0.05
Text: One of the major functions of platelet is to aggregate on the wounded site as first step to block the bleeding vessel. […] This recovery is statistically different (FIG. 18D P<0.05).

GM-CSF = assay: Plasma cytokine arrays after IR; format: in vivo, mouse; settings: post-IR
Text: A 96 cytokine membrane array (RayBioTech, Norcross, Ga.) and a Luminex Multiple cytokine beads array (Panomics, Fremont, Calif.) were used to determine the alteration of a panel of plasma cytokines after IR and the effect of FGF-P on reversing the altered pattern. […]-P also exerts homeostatic effect to keep cytokine level towards normal balance.

[8] = Stool hemoccult score after sub-TBI; format: in vivo, mouse (Balb/c, C57BL/6); settings: Balb/c, 12.5 Gy sub-TBI; FGF-P 2 mg/kg im 15 min post irradiation; Amifostine iv 30 min pre-irradiation; P<0.05
Text: There are commonly employed assays known to be relevant to both mouse and man for determining relative endpoints. These include: 1) stool blood: mucosal barrier breakdown is associated with bleeding of the small bowel; therefore, a hemoccult analysis with a commercial kit (BD Cat #64151) was used in the preliminary data at 3 days after sub-TBI. The time course and frequency of GI bleeding; 2) stool formation: the GI functions of digestion, absorption of nutrition and water, and the regular movement of intestinal muscle are required for formation of normal stool can be measured. All these functions can be upset by radiation. For example, loss of villi leads to decreased fluid absorption and diarrhea. The colon was excised and examined visually for the presence of formed stool at 3.5 days post-IR; 3) endotoximia: bacterial translocation can occur at early times following gastrointestinal radiation exposure.
2) A standard scoring scale was used to evaluate stool formation (diarrhea). The bowel was extracted from the abdomen and visually inspected. Formed stool was easily distinguished from semi-solid and liquid stool as it passed from the ascending to descending colon. FIGS. 7B and 7C show the irradiated bowel in controls compared with FGF-P-treated Balb/c mice. The FGF-P was given at a dose of 2 mg/kg im for three daily doses beginning 15 min after irradiation. […]

[9] = FGF-P (2 mg/ml im) 3 doses, P<0.05
[10] = vs vehicle-treated mice, same IR dose

**Q.** What does the source list for CC(C)C[C@H](NC(=O)[C@H](C)NC(=O)[C@@H](NC(=O)[C@H](Cc1ccc(O)cc1)NC(=O)[C@H](Cc1c[nH]c2ccccc12)NC(=O)[C@H](CO)NC(=O)[C@H](CO)NC(=O)[C@H](Cc1ccc(O)cc1)NC(=O)[C@H](CCCCN)NC(=O)[C@H](CCCNC(=N)N)NC(=O)[C@H](CO)NC(=O)[C@H](CCCNC(=N)N)NC(=O)[C@H](Cc1ccc(O)cc1)NC(=O)[C@@H](N)CS)C(C)C)C(=O)N[C@@H](CCCCN)C(=O)N[C@@H](CCCNC(=N)N)C(=O)N[C@@H](CS)C(=O)O [FGF-P, CYRSRKYSSWYVALKRC] (H-CYRSRKYSSWYVALKRC-OH; N-terminus and C-terminus assumed)?
**A.** response of irradiated BM cells (BM cells [1]; 0.5 Gy, treated within 1 hour post-IR, 3H-TdR): in the same fashion as normal BM cells; order of responsiveness (BM cells [1]; 3H-TdR incorporation, serum-free media): FGF-P (250-500 ng/ml)>native FGF2 (50 ng/ml), GM-CSF and TPO (100 ng/ml); dose dependence of stimulatory effect (BM cells [1]; normal and 0.5 Gy irradiated BM cells): dose-dependent; plasma amylase level [2, 9]: restored it to normal levels; plasma insulin levels [2, 9]: restored to near normal; plasma level of secretin [2, 9]: reversed this effect; blood glucose ([2]; FGF-P (im) 3 doses): better preserved; megakaryocyte colony formation [3]: greatly stimulated the formation of megakaryocyte colony to the level as native FGF2; colony formation of BM cells (BM cells [4]): enhanced colony formation of BM cells in a dose dependent manner; dose achieving best result ([5]; 7.1 Gy TBI, 15, 30, 60 mg/kg tested): 60 mg/kg; dose dependence of mitigation effect ([5]; 7.1 Gy TBI, FGF-P 15, 30, 60 mg/kg): dose-dependent effect; mitigation effect on ARS, DMF ([5]; Balb/c, 6.5, 7 and 7.5 Gy TBI, FGF-P 1 mg/kg IM right after TBI, daily for 5 days): DMF similar to that of native FGF2; mice survived ([5]; 6.5 Gy TBI): 87%; mice survived ([5]; 7.5 Gy TBI): 66%; mitigation effect with delayed delivery ([5]; FGF-P given 8 hour after 7.1 Gy IR): still effective; platelet counts ([6]; 4 or 5 Gy TBI): accelerated recovery of platelet counts; leucocytes [6, 10]: increased; red cells [6, 10]: increased; growth of BM cells (BM cells [7]): stimulated the growth of BM cells in a similar pattern as TPO, EPO and GM-CSF; platelet aggregation (platelet): recovered towards normal; plasma GM-CSF (GM-CSF): increased the IR-reduced GM-CSF; stool hemoccult score [8]: reduced stool hemoccult score
